The test system of one experiment is CES in T84 cells. As to the kind of experiment: CES activity on pNPA, T84 cells.
Another experiment concerns CES in A498 cells. The experiment is described as follows: CES activity on pNPA, A498 cells.
In the next experiment the test system is CES in Caco-2 cells. The experiment is described as follows: CES activity on pNPA, Caco-2 cells.
The test system of a further experiment is CES in S9 Intestine. As to the kind of experiment: CES activity on pNPA, intestine S9 fraction.
For another experiment, the system named is CES in HepG2 cells. As to the kind of experiment: CES activity on pNPA, HepG2 cells.
In a further experiment the test system is CES in S9 Liver. As to the kind of experiment: CES activity on pNPA, liver S9 fraction.
For another experiment, the target named is T1, recombinant human CES1 (Homo sapiens, UniProt P23141).
T1 sequence (P23141 18-567): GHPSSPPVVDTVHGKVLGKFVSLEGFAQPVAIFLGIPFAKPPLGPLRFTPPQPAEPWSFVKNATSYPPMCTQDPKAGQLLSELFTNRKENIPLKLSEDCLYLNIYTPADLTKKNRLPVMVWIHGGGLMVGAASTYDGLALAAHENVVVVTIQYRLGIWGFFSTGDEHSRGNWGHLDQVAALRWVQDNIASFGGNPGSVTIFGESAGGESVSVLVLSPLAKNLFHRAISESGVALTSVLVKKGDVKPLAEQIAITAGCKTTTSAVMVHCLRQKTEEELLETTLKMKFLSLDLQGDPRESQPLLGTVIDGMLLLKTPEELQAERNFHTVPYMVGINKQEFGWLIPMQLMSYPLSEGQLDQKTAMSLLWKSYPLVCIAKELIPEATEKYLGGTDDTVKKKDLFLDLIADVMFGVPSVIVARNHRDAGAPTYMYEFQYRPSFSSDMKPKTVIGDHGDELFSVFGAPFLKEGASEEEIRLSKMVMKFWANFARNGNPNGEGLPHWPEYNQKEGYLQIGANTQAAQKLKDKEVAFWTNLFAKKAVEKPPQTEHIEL
As to the kind of experiment: CES activity on pNPA, recombinant CES1.

For a further experiment, the system named is CES in S9 Kidney. The experiment is described as follows: CES activity on pNPA, kidney S9 fraction.
Experiment [1] concerns human cell lines (Caco-2, HepG2, T84, A498). As to the kind of experiment: cells. Type of experiment: in vitro ADME. To be noted: read-out: % inhibition of deacetylation of 3/15ADON.
In the next experiment the target is T2, recombinant human CES2 (Homo sapiens, UniProt O00748).
T2 sequence (O00748 27-559): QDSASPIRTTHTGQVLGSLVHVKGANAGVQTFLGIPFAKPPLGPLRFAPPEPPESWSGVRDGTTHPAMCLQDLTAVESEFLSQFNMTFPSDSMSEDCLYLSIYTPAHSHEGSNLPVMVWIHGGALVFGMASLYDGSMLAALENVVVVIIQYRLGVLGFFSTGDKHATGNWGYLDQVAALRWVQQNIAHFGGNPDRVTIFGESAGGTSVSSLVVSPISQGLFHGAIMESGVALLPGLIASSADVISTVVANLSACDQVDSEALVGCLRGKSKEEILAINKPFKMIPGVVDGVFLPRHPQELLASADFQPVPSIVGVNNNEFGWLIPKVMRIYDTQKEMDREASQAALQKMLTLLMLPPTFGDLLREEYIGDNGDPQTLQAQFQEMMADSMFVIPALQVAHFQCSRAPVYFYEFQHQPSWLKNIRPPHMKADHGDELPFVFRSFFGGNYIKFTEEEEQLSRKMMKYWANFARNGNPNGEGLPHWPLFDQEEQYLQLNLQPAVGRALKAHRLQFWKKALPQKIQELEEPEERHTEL
The experiment is described as follows: CES activity on pNPA, recombinant CES2. As to conditions: CES2, pNPA 1 mM.

The results in this text go back to paper PMC4999848 (Toxins, 2016).

On to `O=C(C(=O)c1ccccc1)c1ccccc1` [benzil], for which the “% of Inhibition of pNPA deacetylation” value was determined as 85 ± 14% with CES in T84 cells (T84, benzil 100 μM); 83 ± 16% in the experiment with CES in A498 cells (A498, benzil 100 μM); 83 ± 16% in the experiment with CES in Caco-2 cells (Caco-2, benzil 100 μM); 84 ± 15% with CES in S9 Intestine (benzil 100 μM); 87 ± 12% in the experiment with CES in HepG2 cells (HepG2, benzil 100 μM); 85 ± 14% in the experiment with CES in S9 Liver (benzil 100 μM). Also, the “% of Inhibition of pNPA deacetylation” value in the experiment with CES in S9 Kidney (benzil 100 μM) is given as 88 ± 11%. The inhibition at 100 µM on recombinant human CES1 (read-out: % of Inhibition of pNPA deacetylation) is 96 ± 3.3%; in [1], 10 to 20%.
Take `CC(=O)Oc1ccc([N+](=O)[O-])cc1` [pNPA, para-nitrophenyl acetate]: the “Specific activity on pNPA, Without Benzil” value is 6.6 ± 0.7 nmol of pNPA hydrolyzed per minute and per mg of protein in the experiment on CES in T84 cells (T84, pNPA 1 mM, 37 °C); 6.2 ± 1.8 nmol of pNPA hydrolyzed per minute and per mg of protein in the experiment with CES in Caco-2 cells (Caco-2, pNPA 1 mM, 37 °C); 55 ± 9.9 nmol of pNPA hydrolyzed per minute and per mg of protein in the experiment with CES in S9 Intestine (pNPA 1 mM, 37 °C); 15.7 ± 1.1 nmol of pNPA hydrolyzed per minute and per mg of protein with CES in HepG2 cells (HepG2, pNPA 1 mM, 37 °C); 142 ± 4.6 nmol of pNPA hydrolyzed per minute and per mg of protein in the experiment with CES in S9 Liver (pNPA 1 mM, 37 °C); 4965 ± 197 nmol of pNPA hydrolyzed per minute and per mg of protein at recombinant human CES1 (CES1, pNPA 1 mM, 37 °C). Moreover, the “Specific activity on pNPA, Without Benzil” value in the experiment with CES in S9 Kidney (pNPA 1 mM, 37 °C) is 69 ± 7.6 nmol of pNPA hydrolyzed per minute and per mg of protein; at recombinant human CES2 (37 °C), 5671 ± 207 nmol of pNPA hydrolyzed per minute and per mg of protein. Also, the “Specific activity on pNPA, With Benzil” value in the experiment on CES in T84 cells (T84, pNPA 1 mM, benzil 100 μM) is 0.9 ± 0.2 nmol of pNPA hydrolyzed per minute and per mg of protein; with CES in A498 cells (A498, pNPA 1 mM, benzil 100 μM) it was 1.1 ± 0.1 nmol of pNPA hydrolyzed per minute and per mg of protein; with CES in Caco-2 cells (Caco-2, pNPA 1 mM, benzil 100 μM), 1.1 ± 0.1 nmol of pNPA hydrolyzed per minute and per mg of protein; in the experiment with CES in S9 Intestine (pNPA 1 mM, benzil 100 μM), 8.3 ± 2.7 nmol of pNPA hydrolyzed per minute and per mg of protein; in the experiment with CES in HepG2 cells (HepG2, pNPA 1 mM, benzil 100 μM), 2.1 ± 0.1 nmol of pNPA hydrolyzed per minute and per mg of protein; in the experiment on CES in S9 Liver (pNPA 1 mM, benzil 100 μM), 21 ± 2.2 nmol of pNPA hydrolyzed per minute and per mg of protein. Moreover, the “Specific activity on pNPA, With Benzil” value was 167 ± 10 nmol of pNPA hydrolyzed per minute and per mg of protein at recombinant human CES1 (CES1, pNPA 1 mM, benzil 100 μM); 8.1 ± 1.4 nmol of pNPA hydrolyzed per minute and per mg of protein in the experiment on CES in S9 Kidney (pNPA 1 mM, benzil 100 μM); 214 ± 43 nmol of pNPA hydrolyzed per minute and per mg of protein on recombinant human CES2 (benzil 100 μM).
